From US11993599B2, “Therapeutic compounds” (Genentech, Inc., priority 2021, dated 2024)

Assays:
Assay type in all cases: cell-based
[1] = biological target: T1, BRM (Homo sapiens, UniProt P51531); experiment: HiBIT nanoluciferase complementation screen for BRM degraders; conditions: 18 hours, BRM-HiBIT KI Hela cells, luminescence normalized: DMSO only = 0%, no cells = −100%; for Median HiBiT activity 1 μM: compound 1 μM; for Median HiBiT activity 10 μM: compound 10 μM
From the text: Example B-1: HiBIT Nanoluciferase Complementation Screen for BRM Degraders
To assess BRM degradation, compounds were screened for their effect of BRM levels using the HiBIT nanoluciferase complementation strategy developed at Promega. In brief, a HELA cell line that was genetically modified via CRISPR/CAS9 was used to fuse the HiBIT sequence at the 3′ end of BRM (BRM-HiBIT KI Hela). BRM protein levels were then detected using the Nano-Glo HiBIT lytic detection reagent (Promega).
The screened compounds were plated into a white 384-well plate at 10 μM and 1 μM in 25 nL DMSO using an Echo dispenser (Labcyte). BRM-HiBIT KI Hela cells were seeded in the compound plate at 5000 cell per well at 25 μl in DMEM growth media (containing 10% FBS, 1% Glutamax (GIBCO cat #31053-028), lx Penicillin-Streptomycin (ROCHE, cat #1107444001), 4.5 g/L D-Glucose, and no phenol red). After incubation with compounds for 18 hours at 37° C., cell viability was assessed by the addition of 5 μl Cell Titer-Fluor reagent (Promega). After 30 s of mixing on an orbital shaker, and 30 minutes incubation at 37° C., fluorescence was measured with an INFINITE F500 (Tecan) (380-400 nm excitation, 505 nm emission). Next, to assess BRM HiBIT levels, 30 μl of Nano-Glo HiBIT lytic detection reagent (Promega) containing 1:50 Nano-Glo HiBIT lytic substrate and 1:100 LgBIT protein per ml of lytic buffer was added. After shaking on an orbital shaker at 350 rpm for 10 minutes, luminescence was measured on the INFINITE F500 (Tecan). To assess compound effects, luminescence signal was normalized with the mean of wells treated with DMSO only set to 0% and the mean of wells containing no cells set to −100%. Note that, in Table 4, the “Compound Number” corresponds to that used in Table 1.

[2] = biological target: T2, BRG1 (Homo sapiens, UniProt P51532); experiment: Immunofluorescence assay for BRG1 degradation in SW1573 cells; conditions: 20 hours incubation; for DC50: immunofluorescence mean nuclear signal, read-out: BRG1 IF Degradation IC50; for Dmax: SW1573, 20 h, normalized to a known degrader control, read-out: BRG1 IF Degradation Sinf (%)
T2 construct: either BRM primary antibody (Cell signaling Cat #11966) or BRG primary antibody (Abcam, ab 110641); endogenous in cells; host or cells: SW1573
T2 sequence (P51532 whole entry): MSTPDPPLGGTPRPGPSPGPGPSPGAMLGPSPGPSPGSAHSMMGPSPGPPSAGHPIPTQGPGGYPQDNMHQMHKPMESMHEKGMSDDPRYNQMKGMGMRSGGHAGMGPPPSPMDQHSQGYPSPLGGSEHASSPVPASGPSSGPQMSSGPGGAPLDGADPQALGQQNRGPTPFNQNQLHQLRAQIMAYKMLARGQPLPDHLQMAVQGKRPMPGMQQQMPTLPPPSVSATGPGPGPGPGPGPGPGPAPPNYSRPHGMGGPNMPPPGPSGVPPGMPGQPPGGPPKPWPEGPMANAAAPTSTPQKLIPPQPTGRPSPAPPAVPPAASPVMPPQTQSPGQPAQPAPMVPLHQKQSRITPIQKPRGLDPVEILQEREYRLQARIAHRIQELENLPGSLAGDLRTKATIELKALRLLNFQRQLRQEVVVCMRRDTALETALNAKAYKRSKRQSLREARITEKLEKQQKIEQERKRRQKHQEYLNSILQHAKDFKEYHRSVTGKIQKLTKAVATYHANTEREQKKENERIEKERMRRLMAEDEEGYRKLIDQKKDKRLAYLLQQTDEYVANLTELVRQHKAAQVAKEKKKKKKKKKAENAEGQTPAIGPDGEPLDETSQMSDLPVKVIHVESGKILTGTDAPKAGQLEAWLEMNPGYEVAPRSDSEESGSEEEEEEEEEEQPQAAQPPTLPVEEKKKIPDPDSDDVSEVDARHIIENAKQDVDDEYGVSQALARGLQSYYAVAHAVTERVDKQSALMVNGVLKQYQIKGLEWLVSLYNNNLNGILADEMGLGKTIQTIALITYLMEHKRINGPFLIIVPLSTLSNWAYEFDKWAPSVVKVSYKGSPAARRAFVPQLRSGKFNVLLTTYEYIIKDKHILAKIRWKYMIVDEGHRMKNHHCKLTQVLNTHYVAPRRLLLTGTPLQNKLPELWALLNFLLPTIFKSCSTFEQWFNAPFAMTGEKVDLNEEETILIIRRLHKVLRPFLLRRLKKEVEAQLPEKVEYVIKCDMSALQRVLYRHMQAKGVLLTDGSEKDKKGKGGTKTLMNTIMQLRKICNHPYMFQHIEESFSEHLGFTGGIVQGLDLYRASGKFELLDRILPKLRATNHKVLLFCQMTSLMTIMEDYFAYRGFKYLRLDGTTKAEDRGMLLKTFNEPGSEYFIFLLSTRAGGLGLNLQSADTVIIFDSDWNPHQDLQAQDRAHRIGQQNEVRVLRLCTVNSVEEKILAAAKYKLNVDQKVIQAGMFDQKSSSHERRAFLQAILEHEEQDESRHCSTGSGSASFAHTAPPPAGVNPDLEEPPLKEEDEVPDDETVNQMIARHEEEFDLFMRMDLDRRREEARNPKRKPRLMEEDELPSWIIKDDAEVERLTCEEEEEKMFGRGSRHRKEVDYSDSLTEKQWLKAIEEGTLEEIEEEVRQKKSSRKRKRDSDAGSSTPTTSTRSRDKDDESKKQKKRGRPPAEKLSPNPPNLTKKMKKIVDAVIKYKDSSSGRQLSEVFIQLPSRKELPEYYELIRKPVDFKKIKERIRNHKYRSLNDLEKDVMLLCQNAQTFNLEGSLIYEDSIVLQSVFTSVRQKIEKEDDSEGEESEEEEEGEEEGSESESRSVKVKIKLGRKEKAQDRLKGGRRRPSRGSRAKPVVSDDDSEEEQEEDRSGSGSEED
In short: (§1)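 Degradation measured as loss of nuclear BRM or BRG1 staining in SW1573 cells after 20 h compound exposure. Signal per cell was imaged and normalized to a known degrader; curves with floating maximum yielded IC50 and Dmax.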

[3] = biological target: T1, BRM; experiment: Immunofluorescence assay for BRM degradation in SW1573 cells; set-up: treated overnight at 4° C. with either BRM primary antibody (Cell signaling Cat #11966) or BRG primary antibody; endogenous in cells; host or cells: SW1573; conditions: 20 hours incubation; for DC50: immunofluorescence mean nuclear signal, read-out: BRM IF Degradation IC50; for BRM IF Degradation Sinf (%): normalized to a known degrader control
In short: as §1

T1 sequence (P51531 whole entry): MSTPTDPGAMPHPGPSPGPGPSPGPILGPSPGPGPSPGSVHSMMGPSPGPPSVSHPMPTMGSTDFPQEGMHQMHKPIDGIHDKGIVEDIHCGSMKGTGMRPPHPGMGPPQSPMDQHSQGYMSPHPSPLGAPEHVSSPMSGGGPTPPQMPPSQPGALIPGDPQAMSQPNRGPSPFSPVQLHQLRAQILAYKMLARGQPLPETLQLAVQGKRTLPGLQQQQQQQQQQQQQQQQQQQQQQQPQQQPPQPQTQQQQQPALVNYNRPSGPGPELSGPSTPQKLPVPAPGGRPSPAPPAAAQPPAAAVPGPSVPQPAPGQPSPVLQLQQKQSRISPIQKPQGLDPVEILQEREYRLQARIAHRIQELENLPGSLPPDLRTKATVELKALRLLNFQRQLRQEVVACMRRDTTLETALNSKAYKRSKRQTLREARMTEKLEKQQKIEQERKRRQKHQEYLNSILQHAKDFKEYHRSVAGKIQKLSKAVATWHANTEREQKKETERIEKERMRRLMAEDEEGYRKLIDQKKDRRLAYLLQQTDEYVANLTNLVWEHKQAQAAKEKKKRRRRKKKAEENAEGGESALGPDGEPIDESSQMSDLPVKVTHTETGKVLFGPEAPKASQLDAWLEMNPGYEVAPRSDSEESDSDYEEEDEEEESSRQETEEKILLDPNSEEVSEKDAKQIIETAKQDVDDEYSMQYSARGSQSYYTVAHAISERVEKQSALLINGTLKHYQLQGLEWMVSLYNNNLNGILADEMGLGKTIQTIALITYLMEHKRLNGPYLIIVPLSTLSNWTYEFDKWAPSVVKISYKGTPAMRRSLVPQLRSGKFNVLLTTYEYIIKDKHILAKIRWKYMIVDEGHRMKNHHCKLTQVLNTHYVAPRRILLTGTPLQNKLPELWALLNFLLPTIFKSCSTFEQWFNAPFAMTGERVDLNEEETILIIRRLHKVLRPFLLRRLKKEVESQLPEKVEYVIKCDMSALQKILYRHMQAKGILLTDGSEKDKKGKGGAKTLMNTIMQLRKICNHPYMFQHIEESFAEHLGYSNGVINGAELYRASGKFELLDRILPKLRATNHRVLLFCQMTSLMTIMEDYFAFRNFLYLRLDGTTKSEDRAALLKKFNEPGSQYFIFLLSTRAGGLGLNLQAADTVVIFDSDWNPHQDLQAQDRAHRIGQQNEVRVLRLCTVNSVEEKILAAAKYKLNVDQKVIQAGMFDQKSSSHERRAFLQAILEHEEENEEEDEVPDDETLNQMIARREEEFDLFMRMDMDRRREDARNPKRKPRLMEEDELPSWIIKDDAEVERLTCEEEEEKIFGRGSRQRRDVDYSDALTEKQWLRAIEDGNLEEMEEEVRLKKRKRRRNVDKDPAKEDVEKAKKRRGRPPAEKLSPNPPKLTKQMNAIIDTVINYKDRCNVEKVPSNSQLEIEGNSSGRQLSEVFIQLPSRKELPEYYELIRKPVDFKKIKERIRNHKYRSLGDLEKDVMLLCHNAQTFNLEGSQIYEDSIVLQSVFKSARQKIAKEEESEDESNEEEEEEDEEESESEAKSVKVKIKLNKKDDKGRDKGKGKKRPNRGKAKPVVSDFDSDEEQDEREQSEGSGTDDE

Nc1nnc(-c2ccccc2O)cc1N1CC2CCC(C1)N2c1ccnc(C#CCN2CCNCC2=O)c1 [Compound 10, 1-(3-(4-(3-(3-amino-6-(2-hydroxyphenyl)pyridazin-4-yl)-3,8-diazabicyclo[3.2.1]octan-8-yl)pyridin-2-yl)prop-2-yn-1-yl)piperazin-2-one]
Median HiBiT activity 1 μM [1]: −50.554% | Median HiBiT activity 10 μM [1]: −56.7556% | DC50 [2]: > 0.1 µM | DC50 [3]: 0.01 to 0.1 µM | BRM IF Degradation Sinf (%) [3]: E (E indicates −30%-−70%)

Nc1nnc(-c2ccccc2O)cc1N1CC2CCC(C1)N2c1ccnc(C#CCCN2CCNCC2)c1 [Compound 1, 2-(6-amino-5-(8-(2-(4-(piperazin-1-yl)but-1-yn-1-yl)pyridin-4-yl)-3,8-diazabicyclo[3.2.1]octan-3-yl)pyridazin-3-yl)phenol]
Median HiBiT activity 1 μM [1]: −87.0122% | Median HiBiT activity 10 μM [1]: −81.2914% | DC50 [2]: > 0.1 µM | Dmax [2]: 71 to 120% | DC50 [3]: 0.01 to 0.1 µM | BRM IF Degradation Sinf (%) [3]: F (F indicates −71%-−120%)

Nc1nnc(-c2ccccc2O)cc1N1CC2CCC(C1)N2c1ccnc(C#CCOC2CCCNC2)c1 (centres unmarked) [Compound 12, 2-(6-amino-5-(8-(2-(3-(piperidin-3-yloxy)prop-1-yn-1-yl)pyridin-4-yl)-3,8-diazabicyclo[3.2.1]octan-3-yl)pyridazin-3-yl)phenol]
Median HiBiT activity 1 μM [1]: −45.7932% | Median HiBiT activity 10 μM [1]: −34.0604% | DC50 [2]: 0.01 to 0.1 µM | Dmax [2]: 0 to 30% | DC50 [3]: 0.01 to 0.1 µM | BRM IF Degradation Sinf (%) [3]: E (E indicates −30%-−70%)

NCC#Cc1cc(N2C3CCC2CN(c2cc(-c4ccccc4O)nnc2N)C3)ccn1 [Compound 24, 2-(6-amino-5-(8-(2-(3-aminoprop-1-yn-1-yl)pyridin-4-yl)-3,8-diazabicyclo[3.2.1]octan-3-yl)pyridazin-3-yl)phenol]
Median HiBiT activity 1 μM [1]: −27.1137% | Median HiBiT activity 10 μM [1]: −43.5174% | DC50 [2]: > 0.1 µM | DC50 [3]: 0.01 to 0.1 µM | BRM IF Degradation Sinf (%) [3]: E (E indicates −30%-−70%)

CN(CC#Cc1cc(N2C3CCC2CN(c2cc(-c4ccccc4O)nnc2N)C3)ccn1)CCO [Compound 3, 2-(6-amino-5-(8-(2-(3-((2-hydroxyethyl)(methyl)amino)prop-1-yn-1-yl)pyridin-4-yl)-3,8-diazabicyclo[3.2.1]octan-3-yl)pyridazin-3-yl)phenol]
Median HiBiT activity 1 μM [1]: −68.4262% | Median HiBiT activity 10 μM [1]: −39.6172% | DC50 [2]: 0.01 to 0.1 µM | Dmax [2]: 30 to 70% | DC50 [3]: 0.01 to 0.1 µM | BRM IF Degradation Sinf (%) [3]: E (E indicates −30%-−70%)

Nc1nnc(-c2ccccc2O)cc1N1CC2CCC(C1)N2c1ccnc(C#C[C@H]2CC[C@H](N)CC2)c1 [Compound 29, 2-(6-amino-5-(8-(2-(((1r,4r)-4-aminocyclohexyl)ethynyl)pyridin-4-yl)-3,8-diazabicyclo[3.2.1]octan-3-yl)pyridazin-3-yl)phenol]
Median HiBiT activity 1 μM [1]: −22.4859% | Median HiBiT activity 10 μM [1]: −33.4085% | DC50 [2]: > 0.1 µM | DC50 [3]: > 0.1 µM

NCCCCCCC#Cc1cc(N2C3CCC2CN(c2cc(-c4ccccc4O)nnc2N)C3)ccn1 [Compound 11, 2-(6-amino-5-(8-(2-(8-aminooct-1-yn-1-yl)pyridin-4-yl)-3,8-diazabicyclo[3.2.1]octan-3-yl)pyridazin-3-yl)phenol]
Median HiBiT activity 1 μM [1]: −46.2503% | Median HiBiT activity 10 μM [1]: −53.1423% | DC50 [2]: 0.01 to 0.1 µM | Dmax [2]: 30 to 70% | DC50 [3]: 0.01 to 0.1 µM | BRM IF Degradation Sinf (%) [3]: F (F indicates −71%-−120%)

NCCCc1cc(N2C3CCC2CN(c2cc(-c4ccccc4O)nnc2N)C3)ccn1 [Compound 33, 2-(6-amino-5-(8-(2-(3-aminopropyl)pyridin-4-yl)-3,8-diazabicyclo[3.2.1]octan-3-yl)pyridazin-3-yl)phenol]
Median HiBiT activity 1 μM [1]: −14.8996% | Median HiBiT activity 10 μM [1]: −55.0132% | DC50 [2]: > 0.1 µM | Dmax [2]: 30 to 70% | DC50 [3]: > 0.1 µM | BRM IF Degradation Sinf (%) [3]: E (E indicates −30%-−70%)

Nc1nnc(-c2ccccc2O)cc1N1CC2CCC(C1)N2c1ccnc(C#CC2CCN2)c1 (centres unmarked) [Compound 17, 2-(6-amino-5-(8-(2-(azetidin-2-ylethynyl)pyridin-4-yl)-3,8-diazabicyclo[3.2.1]octan-3-yl)pyridazin-3-yl)phenol]
Median HiBiT activity 1 μM [1]: −37.0864% | Median HiBiT activity 10 μM [1]: −51.9890% | DC50 [2]: 0.01 to 0.1 µM | Dmax [2]: 0 to 30% | DC50 [3]: 0.01 to 0.1 µM | BRM IF Degradation Sinf (%) [3]: E (E indicates −30%-−70%)

Nc1nnc(-c2ccccc2O)cc1N1CC2CCC(C1)N2c1ccnc(C#CCCCCO)c1 [Compound 27, 2-(6-amino-5-(8-(2-(6-hydroxyhex-1-yn-1-yl)pyridin-4-yl)-3,8-diazabicyclo[3.2.1]octan-3-yl)pyridazin-3-yl)phenol]
Median HiBiT activity 1 μM [1]: −23.7734% | Median HiBiT activity 10 μM [1]: −28.4819% | DC50 [2]: > 0.1 µM | DC50 [3]: > 0.1 µM | BRM IF Degradation Sinf (%) [3]: D (D indicates 0-−30%)

Nc1nnc(-c2ccccc2O)cc1N1CC2CCC(C1)N2c1ccnc(C#CC2CCNCC2)c1 [Compound 19, 2-(6-amino-5-(8-(2-(piperidin-4-ylethynyl)pyridin-4-yl)-3,8-diazabicyclo[3.2.1]octan-3-yl)pyridazin-3-yl)phenol]
Median HiBiT activity 1 μM [1]: −36.9943% | Median HiBiT activity 10 μM [1]: −56.3342% | DC50 [2]: > 0.1 µM | Dmax [2]: 30 to 70% | DC50 [3]: 0.01 to 0.1 µM | BRM IF Degradation Sinf (%) [3]: E (E indicates −30%-−70%)

NCCC#Cc1cc(N2C3CCC2CN(c2cc(-c4ccccc4O)nnc2N)C3)ccn1 [Compound 30, 2-(6-amino-5-(8-(2-(4-aminobut-1-yn-1-yl)pyridin-4-yl)-3,8-diazabicyclo[3.2.1]octan-3-yl)pyridazin-3-yl)phenol]
Median HiBiT activity 1 μM [1]: −18.8155% | Median HiBiT activity 10 μM [1]: −47.5549% | DC50 [2]: > 0.1 µM | Dmax [2]: 0 to 30% | DC50 [3]: > 0.1 µM | BRM IF Degradation Sinf (%) [3]: E (E indicates −30%-−70%)

NCC(=O)NCCCc1cc(N2C3CCC2CN(c2cc(-c4ccccc4O)nnc2N)C3)ccn1 [Compound 32, 2-amino-N-(3-(4-(3-(3-amino-6-(2-hydroxyphenyl)pyridazin-4-yl)-3,8-diazabicyclo[3.2.1]octan-8-yl)pyridin-2-yl)propyl)acetamide]
Median HiBiT activity 1 μM [1]: −16.4623% | Median HiBiT activity 10 μM [1]: −30.3732% | DC50 [2]: 0.01 to 0.1 µM | Dmax [2]: 0 to 30% | DC50 [3]: 0.01 to 0.1 µM | BRM IF Degradation Sinf (%) [3]: E (E indicates −30%-−70%)

Nc1nnc(-c2ccccc2O)cc1N1CC2CCC(C1)N2c1ccnc(C#CCCO)c1 [Compound 26, 2-(6-amino-5-(8-(2-(4-hydroxybut-1-yn-1-yl)pyridin-4-yl)-3,8-diazabicyclo[3.2.1]octan-3-yl)pyridazin-3-yl)phenol]
Median HiBiT activity 1 μM [1]: −25.9348% | Median HiBiT activity 10 μM [1]: −28.4202% | DC50 [2]: > 0.1 µM | DC50 [3]: > 0.1 µM

Nc1nnc(-c2ccccc2O)cc1N1CC2CCC(C1)N2c1ccnc(C#CCOCCO)c1 [Compound 4, 2-(6-amino-5-(8-(2-(3-(2-hydroxyethoxy)prop-1-yn-1-yl)pyridin-4-yl)-3,8-diazabicyclo[3.2.1]octan-3-yl)pyridazin-3-yl)phenol]
Median HiBiT activity 1 μM [1]: −65.5436% | Median HiBiT activity 10 μM [1]: −51.5968% | DC50 [2]: 0.01 to 0.1 µM | Dmax [2]: 0 to 30% | DC50 [3]: 0.01 to 0.1 µM | BRM IF Degradation Sinf (%) [3]: E (E indicates −30%-−70%)
